Reference: PubChem BioAssay (NCI)
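Growth conditions: 96-well plates. Treatment: test compound, 48 hours, 5 concentrations. Analysis: linear interpolation between bracketing concentrations; unreached endpoints set to highest concentration. The concentration for 50% growth inhibition is given as GI50. TGI: concentration producing complete growth inhibition.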

Columns and labels:
Assay in all cases: NCI-60 cell line screen, 48 h
HCT-116 colon = system: HCT-116 colon
OVCAR-8 ovarian = system: OVCAR-8 ovarian
T-47D breast = system: T-47D breast
MALME-3M melanoma = system: MALME-3M melanoma
HCT-15 colon = system: HCT-15 colon
SF-268 CNS = system: SF-268 CNS
NCI-H522 lung = system: NCI-H522 lung
KM12 colon = system: KM12 colon
LOX IMVI melanoma = system: LOX IMVI melanoma
UACC-257 melanoma = system: UACC-257 melanoma
M14 melanoma = system: M14 melanoma
BT-549 breast = system: BT-549 breast
MDA-MB-231 breast = system: MDA-MB-231 breast
CCRF-CEM leukemia = system: CCRF-CEM leukemia
OVCAR-3 ovarian = system: OVCAR-3 ovarian
HOP-92 NSCLC = system: HOP-92 NSCLC
SF-295 CNS = system: SF-295 CNS
A498 renal = system: A498 renal
786-0 renal = system: 786-0 renal
COLO 205 colon = system: COLO 205 colon
HCC-2998 colon = system: HCC-2998 colon
CAKI-1 renal = system: CAKI-1 renal
RXF 393 renal = system: RXF 393 renal
MCF7 breast = system: MCF7 breast
HT29 colon = system: HT29 colon
UO-31 renal = system: UO-31 renal
NCI-H226 lung = system: NCI-H226 lung
SF-539 CNS = system: SF-539 CNS
IGROV1 ovarian = system: IGROV1 ovarian
NCI/ADR-RES ovarian = system: NCI/ADR-RES ovarian
SK-MEL-2 melanoma = system: SK-MEL-2 melanoma
PC-3 prostate = system: PC-3 prostate
SK-MEL-5 melanoma = system: SK-MEL-5 melanoma
MOLT-4 leukemia = system: MOLT-4 leukemia
U251 CNS = system: U251 CNS
SK-MEL-28 melanoma = system: SK-MEL-28 melanoma
SN12C renal = system: SN12C renal
SNB-75 CNS = system: SNB-75 CNS
K-562 leukemia = system: K-562 leukemia
NCI-H460 lung = system: NCI-H460 lung
SNB-19 CNS = system: SNB-19 CNS
SR leukemia = system: SR leukemia
SW-620 colon = system: SW-620 colon
RPMI-8226 leukemia = system: RPMI-8226 leukemia
A549 NSCLC = system: A549 NSCLC
OVCAR-4 ovarian = system: OVCAR-4 ovarian
MDA-MB-435 = system: MDA-MB-435
TK-10 renal = system: TK-10 renal
EKVX NSCLC = system: EKVX NSCLC
HOP-62 NSCLC = system: HOP-62 NSCLC
ACHN renal = system: ACHN renal
OVCAR-5 ovarian = system: OVCAR-5 ovarian
HS 578T breast = system: HS 578T breast
UACC-62 melanoma = system: UACC-62 melanoma
NCI-H23 lung = system: NCI-H23 lung
DU-145 prostate = system: DU-145 prostate

`Cc1cc(S(=O)(=O)Nc2nc3cc(Cl)ccc3o2)c(SCc2ccccc2)cc1Cl` was tested, and the GI50 (HCT-116 colon) was 18.7 µM, the TGI (HCT-116 colon) was 42.7 µM and the GI50 (OVCAR-8 ovarian) was 4.18 µM. The TGI (OVCAR-8 ovarian) was 26.1 µM, the GI50 (T-47D breast) was 17.8 µM and the TGI (T-47D breast) was 39.7 µM. The GI50 (MALME-3M melanoma) was 19.3 µM, the TGI (MALME-3M melanoma) was 48.5 µM and the GI50 (HCT-15 colon) was 8.28 µM. For the same molecule, the TGI (HCT-15 colon) was 25 µM, the GI50 (SF-268 CNS) was 21.5 µM and the TGI (SF-268 CNS) was 49.7 µM. The GI50 (NCI-H522 lung) was 17.4 µM, the TGI (NCI-H522 lung) was 40.1 µM and the GI50 (KM12 colon) was 18.9 µM. It also gave a TGI (KM12 colon) of 45.5 µM, a GI50 (LOX IMVI melanoma) of 21.4 µM and a TGI (LOX IMVI melanoma) of 48.9 µM. The GI50 (UACC-257 melanoma) was 18.4 µM, the TGI (UACC-257 melanoma) was 38.4 µM and the GI50 (M14 melanoma) was 22.1 µM. For the same molecule, the TGI (M14 melanoma) was 43.9 µM, the GI50 (BT-549 breast) was 19.3 µM and the TGI (BT-549 breast) was 38.7 µM. The GI50 (MDA-MB-231 breast) was 24.2 µM, the TGI (MDA-MB-231 breast) was 50.7 µM and the GI50 (CCRF-CEM leukemia) was 3.53 µM. It also gave a TGI (CCRF-CEM leukemia) of 16.2 µM, a GI50 (OVCAR-3 ovarian) of 22 µM and a TGI (OVCAR-3 ovarian) of 45.6 µM. It also gave a GI50 (HOP-92 NSCLC) of 18.7 µM, a TGI (HOP-92 NSCLC) of 39.1 µM and a GI50 (SF-295 CNS) of 18.7 µM. The TGI (SF-295 CNS) was 46.1 µM, the GI50 (A498 renal) was 18.8 µM and the TGI (A498 renal) was 35.5 µM. The GI50 (786-0 renal) was 20.1 µM, the TGI (786-0 renal) was 38 µM and the GI50 (COLO 205 colon) was 21.2 µM. It also gave a TGI (COLO 205 colon) of 44.1 µM, a GI50 (HCC-2998 colon) of 18.9 µM and a TGI (HCC-2998 colon) of 37.4 µM. The GI50 (CAKI-1 renal) was 22.9 µM, the TGI (CAKI-1 renal) was 49 µM and the GI50 (RXF 393 renal) was 30.9 µM. For the same molecule, the TGI (RXF 393 renal) was 58.5 µM, the GI50 (MCF7 breast) was 24.9 µM and the TGI (MCF7 breast) was 60.5 µM. The GI50 (HT29 colon) was 39.9 µM, the TGI (HT29 colon) was > 100 µM and the GI50 (UO-31 renal) was 22.4 µM. For the same molecule, the TGI (UO-31 renal) was 48.5 µM, the GI50 (NCI-H226 lung) was 38.5 µM and the TGI (NCI-H226 lung) was > 100 µM. For the same molecule, the GI50 (SF-539 CNS) was 17.8 µM, the TGI (SF-539 CNS) was 34.3 µM and the GI50 (IGROV1 ovarian) was 19.8 µM. The TGI (IGROV1 ovarian) was 44.3 µM, the GI50 (NCI/ADR-RES ovarian) was 28.5 µM and the TGI (NCI/ADR-RES ovarian) was 66.2 µM. The GI50 (SK-MEL-2 melanoma) was 20.5 µM, the TGI (SK-MEL-2 melanoma) was 43.1 µM and the GI50 (PC-3 prostate) was 21.5 µM. It also gave a TGI (PC-3 prostate) of 43.5 µM, a GI50 (SK-MEL-5 melanoma) of 17.1 µM and a TGI (SK-MEL-5 melanoma) of 32 µM. The GI50 (MOLT-4 leukemia) was 37.8 µM, the TGI (MOLT-4 leukemia) was > 100 µM and the GI50 (U251 CNS) was 19.2 µM. It also gave a TGI (U251 CNS) of 37.1 µM, a GI50 (SK-MEL-28 melanoma) of 27.3 µM and a TGI (SK-MEL-28 melanoma) of 75.1 µM. The GI50 (SN12C renal) was 22 µM, the TGI (SN12C renal) was 49.5 µM and the GI50 (SNB-75 CNS) was 26.1 µM. The TGI (SNB-75 CNS) was 62.2 µM, the GI50 (K-562 leukemia) was 46.2 µM and the TGI (K-562 leukemia) was > 100 µM. The GI50 (NCI-H460 lung) was 21.7 µM, the TGI (NCI-H460 lung) was 58.5 µM and the GI50 (SNB-19 CNS) was 21.2 µM. The TGI (SNB-19 CNS) was 46.9 µM, the GI50 (SR leukemia) was 46 µM and the TGI (SR leukemia) was > 100 µM. The GI50 (SW-620 colon) was 19.2 µM, the TGI (SW-620 colon) was 38.5 µM and the GI50 (RPMI-8226 leukemia) was 20.3 µM. It also gave a TGI (RPMI-8226 leukemia) of 66.2 µM, a GI50 (A549 NSCLC) of 23.8 µM and a TGI (A549 NSCLC) of 59.9 µM. For the same molecule, the GI50 (OVCAR-4 ovarian) was 25.6 µM, the TGI (OVCAR-4 ovarian) was 74.7 µM and the GI50 (MDA-MB-435) was 21.5 µM. For the same molecule, the TGI (MDA-MB-435) was 42 µM, the GI50 (TK-10 renal) was 25.8 µM and the TGI (TK-10 renal) was 55.1 µM. For the same molecule, the GI50 (EKVX NSCLC) was 17.8 µM, the TGI (EKVX NSCLC) was 37 µM and the GI50 (HOP-62 NSCLC) was 21.9 µM. For the same molecule, the TGI (HOP-62 NSCLC) was 40 µM, the GI50 (ACHN renal) was 18.5 µM and the TGI (ACHN renal) was 34.9 µM. The GI50 (OVCAR-5 ovarian) was 22.7 µM, the TGI (OVCAR-5 ovarian) was 43 µM and the GI50 (HS 578T breast) was 21 µM. It also gave a TGI (HS 578T breast) of 44.3 µM, a GI50 (UACC-62 melanoma) of 19.2 µM and a TGI (UACC-62 melanoma) of 41.3 µM. For the same molecule, the GI50 (NCI-H23 lung) was 26.5 µM, the TGI (NCI-H23 lung) was 54.2 µM and the GI50 (DU-145 prostate) was 22.4 µM. The TGI (DU-145 prostate) was 45.9 µM.
